Like-named read-outs stand apart in the source and are kept apart here. Each block holds one compound with its values, some of them ahead of it.
Tests used:
[1] = biological target: T1, human myeloperoxidase (hMPO) (Homo sapiens, UniProt P05164); assay: Inhibition of human myeloperoxidase (hMPO) peroxidation cycle in vitro; format: biochemical; settings: 3'-(p-aminophenyl) fluorescein and H2O2 at Km
T1 construct: purchased PLANTANATURAL 700-03-001
Method: 50 μL of 2×substrate (composed of 3′-(p-aminophenyl) fluorescein and H2O2, with 3′-(p-aminophenyl) fluorescein and H2O2 both at Km concentration, purchased from Invitrogen, A36003) to a black opaque low-protein-adsorption 96-well plate (purchased from PerkinElmer, 6005270), and 45 μL of 2×compound at different concentrations (DMSO final concentration of 1%) was added. After thorough blowing and uniform mixing of a mixture, […] of […] human myeloperoxidase (purchased from PLANTANATURAL, 700-03-001) was added and mixed uniformly, and an enzyme-linked immunosorbent assay reader was immediately used at a wavelength of Ex/Em:488/520 nm to read fluorescence values for 0-30 minutes (read every 20 seconds) using a dynamic mode. Different concentrations of compound inhibitors were calculated: inhibition rate (%)=[1−(Slopecontrol−Slopecpd)/SlopeControl−SlopeBlank)]*100, where SlopeBlank is a slope of a control without the compound and an MPO well at 0-5 minutes ([…] reading/reaction time t); SlopeControl is a slope of the well without the compound (containing 1% DMSO) at 0-5 minutes (linear reaction stage); and Slopecpd is a slope of the compound at 0-5 minutes. Using a logarithmic value of the compound concentration as an abscissa and the inhibition rate as an ordinate, a 4-parameter nonlinear regression curve was fitted to calculate the IC50 value (Y=Bottom+(Top-Bottom)/(1+10^((Log IC50−X)*HillSlope)), where Hillslope represents the slope of the fitted curve, and IC50 represents the half inhibitory concentration. Test results were shown in Table 1.

[2] = Pharmacokinetic study in rats; format: in vivo, SD rats; settings: for F: 5 mg/kg p.o versus 1 mg/kg i.v; for AUC(0-t) / clearance / half-life / Cmax: male, SD, rat, plasma
From the text: SD rats: male, 180-350 g, purchased from Zhejiang Vital River Laboratory Animal Technology Co., Ltd.
Reagents: dimethyl sulfoxide (DMSO), polyethylene glycol 400 (PEG-400), normal saline, acetonitrile, formic acid, propranolol (internal standard) are all commercially available.
Instrument: Thermo Fisher Scientific LC-MS (Ultimate 3000 UPLC, TSQ QUANTUMN ULTRA triple quadrupole mass spectrometer).
The compound was weighed and dissolved in a DMSO-PEG-400 normal saline (5:60:35, v/v/v) system. After intravenous administration or intragastric administration to rats, 200 μL of venous blood was collected in an EDTA-K2 anticoagulation tube at 15 minutes, 30 minutes, 1 hour, 2 hours, 5 hours, 7 hours, and 24 hours (additional 5 minutes for an IV group) and centrifuged at 12000 rpm for 2 minutes. Plasma was taken and frozen and preserved at −80° C. for testing. A certain amount of samples for test was precisely weighed and dissolved in DMSO to 2 mg/mL as a stock solution. An appropriate amount of compound stock solution was accurately sucked, and diluted by adding acetonitrile to prepare a standard series solution. 4 μL of each of the above standard series solution was accurately sucked, and added to 36 µL of blank plasma, vortex mixing was performed to prepare plasma samples equivalent to plasma concentrations of 1 ng/mL, 3 ng/mL, 5 ng/mL, 10 ng/mL, 30 ng/mL, 100 ng/mL, 300 ng/mL, 1000 ng/mL, and 3000 ng/mL. Dual sample analysis was performed for each concentration to establish a standard curve. 30 μL of plasma (5-fold dilution of plasma of intravenous administration for 5 minutes, 15 minutes, and 30 minutes) was taken, a propranolol acetonitrile solution (internal standard, 50 ng/mL) was added to precipitate the protein, after 100 μL water was added for even vortex mixing, centrifugation was performed at 4000 rpm for 5 minutes, and supernatants were taken for LC-MS/MS analysis. LC-MS detection conditions were as follows: • chromatographic column: YMC-Triart C18 50×3.0 mmI.D. S-3 μm, 12 nm
A mobile phase A: water (0.1% formic acid), a mobile phase B: acetonitrile, a flow rate: 0.5 mL/min, gradient elution: […]
After LC-MS detection of blood drug concentration, WinNonlin 6.1 software was used to calculate pharmacokinetic parameters using non compartmental model method.

CYP3A4 = assay: Enzyme induction test, CYP3A4 mRNA level in human primary hepatocytes; format: in vitro ADME; settings: CYP3A4, 10 μM, 3 days
From the text: (§1) Material: Williams' Medium E (without phenol red) was purchased from Sigma Aldrich Trading Co., Ltd; Williams+ Medium E, Recombinant human insulin, GlutaMAX, and HEPES were purchased from Life Technologies; Isotonic Percoll was purchased from General Electric; Fetal bovine serum was purchased from Corning; Dexamethasone was commercially available; CellTiter-Fluor™ Cell Viability Assay kit was purchased from Promega; Taqman Gene Expression Assay probe (20×, CYP1A2, FAM labeled), Taqman Gene Expression Assay probe (20×, CYP2B6, FAM labeled), Taqman Gene Expression Assay probe (20×, CYP3A4, FAM labeled), and Taqman Gene Expression Assay probe (20×, ACTB, VIC labeled) were purchased from AB (Applied Biosystems); and human primary hepatocytes were purchased from BioIVT.
(§2) The test compound, a positive inducer, a negative inducer, and internal standard were accurately weighed to prepare a stock solution with the corresponding concentration. A cell thawing solution and incubation buffer were prepared, and related reagents and consumables of mRNA extraction, reverse transcription, and fluorescence quantitative PCR were prepared.
(§3) The frozen human primary hepatocytes were thawed and inoculated onto a suitable cell culture plate at a certain density for monolayer cell culture to meet cell growth requirements. […]

CYP1A2 = assay: Enzyme induction test, CYP1A2 mRNA level in human primary hepatocytes; format: in vitro ADME; settings: CYP1A2, 10 μM, 3 days
From the text: as §1, §2, §3

CYP2B6 = assay: Enzyme induction test, CYP2B6 mRNA level in human primary hepatocytes; format: in vitro ADME; settings: CYP2B6, 10 μM, 3 days
From the text: as §1, §2, §3

CYP3A = CYP3A (Homo sapiens, UniProt P08684); assay: Enzyme inhibition test, CYP3A in human liver microsomes; format: in vitro ADME; settings: 0.2 mg/mL human liver microsomes
Chain of CYP3A (P08684 2-503): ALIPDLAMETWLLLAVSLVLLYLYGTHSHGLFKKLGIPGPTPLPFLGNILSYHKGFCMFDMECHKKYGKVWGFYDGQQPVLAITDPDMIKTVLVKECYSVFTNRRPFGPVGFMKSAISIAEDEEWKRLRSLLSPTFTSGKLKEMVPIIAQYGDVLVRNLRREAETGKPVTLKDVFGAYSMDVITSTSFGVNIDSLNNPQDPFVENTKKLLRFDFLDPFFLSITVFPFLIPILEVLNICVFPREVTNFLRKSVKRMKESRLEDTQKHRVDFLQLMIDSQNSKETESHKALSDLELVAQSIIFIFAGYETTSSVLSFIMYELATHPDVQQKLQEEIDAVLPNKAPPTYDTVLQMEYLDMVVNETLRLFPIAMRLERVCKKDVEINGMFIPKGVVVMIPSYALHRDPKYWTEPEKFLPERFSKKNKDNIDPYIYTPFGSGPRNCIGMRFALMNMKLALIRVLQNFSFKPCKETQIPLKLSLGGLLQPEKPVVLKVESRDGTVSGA
Method: Material: midazolam and testosterone were purchased from Cerilliant and PANPHY; ketoconazole was purchased from MCE; and human liver microsomes were purchased from Corning.
The inhibitory potential of the compound on cytochrome P450 enzyme CYP3A was evaluated using a phosphate buffer saline (100 mM, pH 7.4) system containing 0.2 mg/mL human liver microsomes. The test concentrations of the compound were 0.068 μM, 0.206 μM, 0.62 μM, 1.85 μM, 5.56 μM, 16.67 μM, and 50 μM. The positive substrates in the incubation system were 1 μM midazolam and 40 μM testosterone (CYP3A), respectively. The concentration of the positive inhibitor ketoconazole (CYP3A) in the incubation system was 0.05 μM. Incubation was carried out at 37° C., and an NADPH solution with a final concentration of 1 mM was added to initiate a reaction. The incubation time was 10 minutes. After incubation, all samples were added to 300 μL of acetonitrile solution containing 3% formic acid and internal standard (0.5 μM tolbutamide) to precipitate the protein, and the metabolic product generation of the labeled substrate was detected by UPLC-MS/MS to calculate an IC50 value of compound inhibition.

[3] = pH 7.4, probe midazolam (1 μM), CYP3A (Midazolam)
[4] = pH 7.4, probe testosterone (40 μM), CYP3A (Testosterone)

T1 sequence (P05164 279-745 limits assumed): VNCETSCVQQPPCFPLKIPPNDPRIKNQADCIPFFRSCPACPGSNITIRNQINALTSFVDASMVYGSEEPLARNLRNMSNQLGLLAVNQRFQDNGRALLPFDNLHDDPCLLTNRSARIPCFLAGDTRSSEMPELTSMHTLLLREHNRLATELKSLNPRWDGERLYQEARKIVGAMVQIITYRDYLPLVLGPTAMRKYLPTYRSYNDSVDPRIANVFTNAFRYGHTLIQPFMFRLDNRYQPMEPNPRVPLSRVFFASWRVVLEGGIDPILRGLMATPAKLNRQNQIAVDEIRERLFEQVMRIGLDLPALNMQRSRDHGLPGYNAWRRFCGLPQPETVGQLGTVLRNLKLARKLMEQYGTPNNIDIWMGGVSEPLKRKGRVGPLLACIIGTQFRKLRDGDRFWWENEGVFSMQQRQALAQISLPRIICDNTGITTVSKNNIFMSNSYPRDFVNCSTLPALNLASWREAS
T1 sequence (P05164 165-273 limits assumed): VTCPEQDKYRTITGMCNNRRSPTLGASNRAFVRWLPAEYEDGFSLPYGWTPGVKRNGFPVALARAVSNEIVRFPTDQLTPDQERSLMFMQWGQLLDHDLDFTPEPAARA

SMILES: COc1c[nH]c2c(=O)[nH]c(=S)n(Cc3cccc4c3C(N)CCO4)c12 (stereo not drawn) [Compound 17, 1-((4-aminochroman-5-yl)methyl)-7-methoxyl-2-thio-1,2,3,5-tetrahydro-4H-pyrrolo[3,2-d]pyrimidin-4-one]
IC50 [1]: 0.0234 µM

SMILES: NC1COc2cccc(Cn3c(=S)[nH]c(=O)c4[nH]ccc43)c21 (stereo not drawn) [Compound 3]
IC50 [1]: 0.031 µM

SMILES: NC1CCOc2cccc(Cn3c(=S)[nH]c(=O)c4[nH]ccc43)c21 (stereo not drawn) [Compound 6, 1-((4-aminochroman-5-yl)methyl)-2-thio-1,2,3,5-tetrahydro-4H-pyrrolo[3,2-d]pyrimidin-4-one]
F [2]: 48.6%
AUC(0-t) ([2]; iv, 1 mg/kg i.v): 827 ng·h/mL
clearance ([2]; iv, 1 mg/kg i.v): 19.9 mL/min/kg
half-life ([2]; iv, 1 mg/kg i.v): 3.36 h
Cmax ([2]; iv, 1 mg/kg i.v, read-out: Cmax): 620 ng/mL
AUC(0-t) ([2]; po, 5 mg/kg p.o): 2010 ng·h/mL
half-life ([2]; po, 5 mg/kg p.o): 5.13 h
Cmax ([2]; po, 5 mg/kg p.o, read-out: Cmax): 305 ng/mL
IC50 [1]: 0.00802 µM

SMILES: NC1CCc2c(Cl)ccc(Cn3c(=S)[nH]c(=O)c4[nH]ccc43)c21 (stereo not drawn) [Compound 1, 1-((3-amino-7-chloro-2,3-dihydro-1H-inden-4-yl)methyl)-2-thio-1,2,3,5-tetrahydro-4H-pyrrolo[3,2-d]pyrimidin-4-one]
IC50 [1]: 0.0516 µM

SMILES: NC1COc2c(Cl)ccc(Cn3c(=S)[nH]c(=O)c4[nH]ccc43)c21 (stereo not drawn) [Compound 2, 1-((3-amino-7-chloro-2,3-dihydrobenzofuran-4-yl)methyl)-2-thio-1,2,3,5-tetrahydro-4H-pyrrolo[3,2-d]pyrimidin-4-one]
IC50 [1]: 0.033 µM

SMILES: Cc1c[nH]c2c(=O)[nH]c(=S)n(Cc3cccc4c3C(N)CCO4)c12 (stereo not drawn) [Compound 16]
IC50 [1]: 0.0196 µM

SMILES: NC1CCCc2cccc(Cn3c(=S)[nH]c(=O)c4[nH]ccc43)c21 (stereo not drawn) [Compound 7, 1-((8-amino-5,6,7,8-tetrahydronaphthalene-1-yl)methyl)-2-thio-1,2,3,5-tetrahydro-4H-pyrrolo[3,2-d]pyrimidin-4-one]
IC50 [1]: 0.0107 µM

SMILES: NC1CCOc2c(Cl)ccc(Cn3c(=S)[nH]c(=O)c4[nH]ccc43)c21 (stereo not drawn) [Compound 5, 1-((4-amino-8-chlorochroman-5-yl)methyl)-2-thio-1,2,3,5-tetrahydro-4H-pyrrolo[3,2-d]pyrimidin-4-one]
IC50 [1]: 0.0161 µM

Other lines, results leading:

IC50 [1]: 0.00992 µM
SMILES: N[C@@H]1CCCOc2cccc(Cn3c(=S)[nH]c(=O)c4[nH]ccc43)c21 (single isomer, unassigned) [Compound 15A, 1-((5-amino-2,3,4,5-tetrahydrobenzo[b]oxypyrimidin-6-yl)methyl)-2-thio-1,2,3,5-tetrahydroxy-4H-pyrrolo[3,2-d]pyrimidin-4-one]

F [2]: 83.3%
AUC(0-t) ([2]; iv, 1 mg/kg i.v): 293 ng·h/mL
Cmax ([2]; iv, 1 mg/kg i.v): 800 ng/mL
clearance ([2]; iv, 1 mg/kg i.v): 52.7 mL/min/kg
half-life ([2]; iv, 1 mg/kg i.v): 2.59 h
AUC(0-t) ([2]; po, 5 mg/kg p.o): 1220 ng·h/mL
Cmax ([2]; po, 5 mg/kg p.o): 500 ng/mL
half-life ([2]; po, 5 mg/kg p.o): 3.44 h
mRNA Relative positive induction percentage (CYP3A4): 7.93%
mRNA Relative positive induction percentage (CYP1A2): 0.15%
mRNA Relative positive induction percentage (CYP2B6): 8.41%
IC50 [1]: 0.00483 µM
IC50 at 10 min (CYP3A; [3]): > 50 µM
IC50 at 10 min (CYP3A; [4]): 19.7 µM
SMILES: N[C@@H]1CCCc2cccc(Cn3c(=S)[nH]c(=O)c4[nH]ccc43)c21 (single isomer, unassigned) [Compound 7A, 1-((8-amino-5,6,7,8-tetrahydronaphthalene-1-yl)methyl)-2-thio-1,2,3,5-tetrahydro-4H-pyrrolo[3,2-d]pyrimidin-4-one]

F [2]: 57.2%
AUC(0-t) ([2]; iv, 1 mg/kg i.v): 1270 ng·h/mL
Cmax ([2]; iv, 1 mg/kg i.v): 1900 ng/mL
clearance ([2]; iv, 1 mg/kg i.v): 13 mL/min/kg
half-life ([2]; iv, 1 mg/kg i.v): 4.98 h
AUC(0-t) ([2]; po, 5 mg/kg p.o): 3630 ng·h/mL
Cmax ([2]; po, 5 mg/kg p.o): 1700 ng/mL
half-life ([2]; po, 5 mg/kg p.o): 3.66 h
mRNA Relative positive induction percentage (CYP3A4): 2.10%
mRNA Relative positive induction percentage (CYP1A2): −0.29%
mRNA Relative positive induction percentage (CYP2B6): 1.68%
IC50 [1]: 0.00464 µM
IC50 at 10 min (CYP3A; [3]): > 50 µM
IC50 at 10 min (CYP3A; [4]): 27.3 µM
SMILES: N[C@@H]1CCOc2cccc(Cn3c(=S)[nH]c(=O)c4[nH]ccc43)c21 (single isomer, unassigned) [Compound 6A]
